Source: the NIST ThermoML archive (doi:10.1021/acs.jced.5b00770)
Numbers after ± are expanded uncertainties.

Settings: Crystal; visual observation

Structure (SMILES): [Cl-].c1ccc([P+](c2ccccc2)(c2ccccc2)c2ccccc2)cc1 [tetraphenylphosphonium chloride]
- Normal melting temperature: 276.50 ± 0.9 °C
